Data reported in patent US12023391B2, “Alpha(v)beta(6) integrin-binding peptides and methods of use thereof” (The Regents of the University of California, priority 2016, dated 2024).
Like-named read-outs stand apart in the source and are kept apart here. Residues, ends and D or L forms follow the SMILES beside them. *: point of attachment. Benzoyl(4-F) = O=C(c1ccc(F)cc1)*

How the values were obtained:
[1] = test system: DX3puroβ6 (αvβ6-positive) and DX3 puro (αvβ6-negative) cells; assay: Flow cytometry binding to DX3puroβ6 and DX3 puro cells; assay type: cell-based, human; details: peptide concentrations of 10 μM and 100 μM
From the text: FIGS. 8A and 8B show binding of a peptide labeled with FAM-X ([…]-FAM-X; SEQ ID NO:15) to DX3puroβ6 and DX3 puro cells. […] 150,000 cells were used in each experiment. […] These studies used 75,000, 150,000, or 300,000 cells per experiment. The control experiment used 300,000 unstained cells.
Flow cytometry was used to assay the binding of a peptide labeled with FAM-X ([…]-FAM-X; SEQ ID NO:15) to DX3puroβ6 and DX3 puro cells.

αvβ3 integrin = αvβ3 integrin (Homo sapiens, UniProt P05106+P06756); assay: Competitive binding ELISA with purified integrin, αvβ3
Procedure: (§1) As described further below, a 9-mer XXDLXXLXK(FB) (SEQ ID NO: 23) peptide library was assembled on TentaGel resin (1 g, ˜3,000,000 beads) using standard Fmoc chemistry. Small aliquots (50 mg, ˜150,000 beads) were incubated with a mixture of red fluorescent DX3 ITGβ6 mCherry (αvβ6-positive) and green fluorescent DX3 EmGFP (αvβ6-negative) cells for 3 hours and evaluated under a fluorescent microscope. Beads that were covered only by red (i.e. αvβ6-positive) cells were isolated; these beads were subsequently characterized by Edman sequencing. Following synthesis of the identified peptides, competitive binding ELISA was performed with purified integrin to evaluate binding specificities for the target αvβ6 integrin as well as closely related αv-integrins.
(§2) Anti-αv capture antibody P2W7 (5 μg/mL, Novus Biologicals) was coated onto Nunc MaxiSorp 96-well plates, followed by blocking with BSA overnight at 4° C. All wells were washed 3 times with PBS, followed by plating of purified integrin (3 μg/mL) and incubating at room temperature in a humid chamber for 1 hour. […] Captured biotinylated natural ligand was detected with ExtrAvidin-HRP and developed with TMB substrate. Half-maximal inhibitory concentration (IC50) of peptides was determined fitting to sigmoidal dose-response model in GraphPad Prism 6.0 (FIG. 5A). […]

[2] = target: (Homo sapiens, UniProt P06756+P18084); assay: Competitive binding ELISA with purified integrin, αvβ4 (so in the source)
Procedure: as §1, with “Small” for “As described further below, a 9-mer XXDLXXLXK(FB) (SEQ ID NO: 23) peptide library was assembled on TentaGel resin (1 g, ˜3,000,000 beads) using standard Fmoc chemistry. Small”
(§3) Anti-αv capture antibody P2W7 (5 μg/mL, Novus Biologicals) was coated onto Nunc MaxiSorp 96-well plates, followed by blocking with BSA overnight at 4° C. All wells were washed 3 times with PBS, followed by plating of purified integrin (3 μg/mL) and incubating at room temperature in a humid chamber for 1 hour. Peptide solutions, titrated (1 μM-1 pM for αvβ6 integrin and 100 μM-100 pM for αvβ3 integrin) and mixed with biotinylated natural ligand, were added to the integrin-coated wells in triplicate. After incubating for an hour at room temperature, the plate was washed 3 times with wash buffer. Captured biotinylated natural ligand was detected with ExtrAvidin-HRP and developed with TMB substrate. Half-maximal inhibitory concentration (IC50) of peptides was determined fitting to sigmoidal dose-response model in GraphPad Prism 6.0 (FIG. 5A).

αvβ6 integrin = αvβ6 integrin (Homo sapiens, UniProt P06756+P18564); assay: Competitive binding ELISA with purified integrin, αvβ6
Procedure: as §1, with “Small” for “As described further below, a 9-mer XXDLXXLXK(FB) (SEQ ID NO: 23) peptide library was assembled on TentaGel resin (1 g, ˜3,000,000 beads) using standard Fmoc chemistry. Small”
as §3, with “After incubating for an hour at room temperature, the plate was washed 3 times with wash buffer.” left out

αvβ1 = αvβ1 (Homo sapiens, UniProt P05556+P06756); assay: Competitive binding ELISA with purified integrin, αvβ1
Procedure: as §1, §2

[3] = Serum stability in mouse serum, HPLC analysis; assay type: in vitro ADME; details: [18F]-radiolabeled peptide, 37° C., an hour
Procedure: Serum stability study analysis of Peptide 1 (ST1-62) (SEQ ID NO:2) was performed by first incubating the radiolabeled peptide ([^18F]; 25 μCi) with commercially available mouse serum at 37° C. for an hour. The radiotracer was removed from serum by precipitating out the protein with cold EtOH and then injected into a HPLC for analysis.
(§4) Based on selectivity profiles of all peptides, the ST1-62 peptide was selected to move forward for radiolabeling with [^18F]fluorobenzoic acid for log P, serum stability, and cell binding studies. Log P=−1.09±0.02 (FIG. 6B). Serum stability of the peptide was determined at 1 hour after incubating with mouse serum at 37° C. (FIG. 7A).

[4] = Log P of radiolabeled peptide; assay type: physicochemical; details: peptide radiolabeled with [18F]fluorobenzoic acid
Procedure: as §4

For “VGDLTYLKK-FAM-X (FAM label; C-term FAM-X, fluorescein dye/label) [Fluorescent labeled peptide]”, the “Binding to αvβ6-positive versus αvβ6-negative cells” value [1] was “increased binding to the αvβ6-positive cells than the αvβ6-negative cells”.

For `CC(C)C[C@H](NC(=O)[C@H](CC(=O)O)NC(=O)CNC(=O)[C@@H](N)CCCNC(=N)N)C(=O)N[C@@H](C)C(=O)N[C@@H](CC(=O)O)C(=O)N[C@@H](CC(C)C)C(=O)N[C@@H](CCCNC(=N)N)C(=O)N[C@@H](CCCCNC(=O)c1ccc(F)cc1)C(N)=O` [ST1-60] (H-RGDLADLRK(Benzoyl(4-F))-NH2), the IC50 (αvβ3 integrin) was 0.5 µM and the IC50 ([2]; competitive binding ELISA, read-out: IC50 αvβ4) was > 100 µM.

`CN[C@H](C(=O)NCC(=O)N[C@@H](CC(=O)O)C(=O)N[C@@H](CC(C)C)C(=O)N[C@H](C(=O)N[C@@H](Cc1ccc(O)cc1)C(=O)N[C@@H](CC(C)C)C(=O)N[C@@H](CCCCN)C(=O)N[C@@H](CCCCNC(=O)c1ccc(F)cc1)C(N)=O)[C@@H](C)O)C(C)C` showed an IC50 (αvβ6 integrin) of 0.5 µM.

For `CC(C)C[C@H](NC(=O)[C@H](CCC(=O)O)NC(=O)[C@H](CCCNC(=N)N)NC(=O)[C@H](CC(C)C)NC(=O)[C@H](CC(=O)O)NC(=O)CNC(=O)[C@@H](N)CCCNC(=N)N)C(=O)N[C@@H](C)C(=O)N[C@@H](CCCCNC(=O)c1ccc(F)cc1)C(N)=O` [ST1-61] (H-RGDLRELAK(Benzoyl(4-F))-NH2), the IC50 [2] was > 100 µM.

For `CSCC[C@H](NC(=O)[C@H](CC(C)C)NC(=O)[C@H](CC(=O)O)NC(=O)CNC(=O)[C@@H](N)CCCNC(=N)N)C(=O)N[C@@H](CCCCN)C(=O)N[C@@H](CC(C)C)C(=O)N[C@@H](C)C(=O)N[C@@H](CCCCNC(=O)c1ccc(F)cc1)C(N)=O` [ST1-59] (H-RGDLMKLAK(Benzoyl(4-F))-NH2), the IC50 [2] was > 100 µM.

For `CC(C)C[C@H](NC(=O)[C@H](Cc1ccc(O)cc1)NC(=O)[C@@H](NC(=O)[C@H](CC(C)C)NC(=O)[C@H](CC(=O)O)NC(=O)CNC(=O)[C@@H](N)C(C)C)[C@@H](C)O)C(=O)N[C@@H](CCCCN)C(=O)N[C@@H](CCCCNC(=O)c1ccc(F)cc1)C(N)=O` [ST1-62], the IC50 (αvβ1) was > 100 µM, the IC50 [2] was > 100 µM and the Serum stability [3] was “cleaved by proteases within an hour”. For the same molecule, the logP [4] was -1.09 ± 0.02.
